Structures are written as SMILES.

This is an account of results in patent publication US20250313535A1, “ALPHA 4 BETA 7 INTEGRIN MODULATORS AND USES THEREOF” (DICE MOLECULES SV, INC., priority 2022, published 2025).

In assay [1] the target is T1, α4β7 integrin (Homo sapiens (Human), UniProt P13612+P26010). Nature of the assay: Integrin Adhesion Assay: Protocol 1 (MAdCAM-coated plate, RPMI-8866 cells, CellTiter GLO readout). It counts as cell-based. The method in brief: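 RPMI-8866 cells (2×10^6 per mL) added with compounds (1% DMSO) to MAdCAM-coated wells blocked in HEPES/NaCl buffer with 1 mM MnCl2, 0.1 mM CaCl2, 1% BSA; 1 h at 37° C, 5% CO2. After four washes, bound cells read by CellTiter GLO luminescence; % inhibition vs DMSO and control wells, 4-parameter fit.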
For orientation: ATP-based viability assays read luminescence as a measure of living cells.

For assay [2], the target named is T1, α4β7 integrin. In words: Integrin Adhesion Assay: Protocol 4 (MAdCAM-coated plate, RPMI-8866 cells with stable LOF mutation of the ITGB1 gene). The class given is cell-based. The method in brief:
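RPMI-8866 cells with CRISPR/Cas9 knockout of ITGB1 (2×10^6/mL) were added to MAdCAM-coated wells with compound (1% DMSO) in HEPES/NaCl buffer with 1 mM MnCl2, 0.1 mM CaCl2 and 1% BSA, then incubated 1 h at 37 °C. After four washes, adherent cells were quantified by CellTiter-Glo luminescence. Percent inhibition versus DMSO and control compound was fitted to 4-parameter curves.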

Setting [3] is: RPMI-8866 cells with stable LOF mutation of the ITGB1 gene, read-out: Mean IC50 α4β7 KO^a.

T1 sequence (P13612 34-1032): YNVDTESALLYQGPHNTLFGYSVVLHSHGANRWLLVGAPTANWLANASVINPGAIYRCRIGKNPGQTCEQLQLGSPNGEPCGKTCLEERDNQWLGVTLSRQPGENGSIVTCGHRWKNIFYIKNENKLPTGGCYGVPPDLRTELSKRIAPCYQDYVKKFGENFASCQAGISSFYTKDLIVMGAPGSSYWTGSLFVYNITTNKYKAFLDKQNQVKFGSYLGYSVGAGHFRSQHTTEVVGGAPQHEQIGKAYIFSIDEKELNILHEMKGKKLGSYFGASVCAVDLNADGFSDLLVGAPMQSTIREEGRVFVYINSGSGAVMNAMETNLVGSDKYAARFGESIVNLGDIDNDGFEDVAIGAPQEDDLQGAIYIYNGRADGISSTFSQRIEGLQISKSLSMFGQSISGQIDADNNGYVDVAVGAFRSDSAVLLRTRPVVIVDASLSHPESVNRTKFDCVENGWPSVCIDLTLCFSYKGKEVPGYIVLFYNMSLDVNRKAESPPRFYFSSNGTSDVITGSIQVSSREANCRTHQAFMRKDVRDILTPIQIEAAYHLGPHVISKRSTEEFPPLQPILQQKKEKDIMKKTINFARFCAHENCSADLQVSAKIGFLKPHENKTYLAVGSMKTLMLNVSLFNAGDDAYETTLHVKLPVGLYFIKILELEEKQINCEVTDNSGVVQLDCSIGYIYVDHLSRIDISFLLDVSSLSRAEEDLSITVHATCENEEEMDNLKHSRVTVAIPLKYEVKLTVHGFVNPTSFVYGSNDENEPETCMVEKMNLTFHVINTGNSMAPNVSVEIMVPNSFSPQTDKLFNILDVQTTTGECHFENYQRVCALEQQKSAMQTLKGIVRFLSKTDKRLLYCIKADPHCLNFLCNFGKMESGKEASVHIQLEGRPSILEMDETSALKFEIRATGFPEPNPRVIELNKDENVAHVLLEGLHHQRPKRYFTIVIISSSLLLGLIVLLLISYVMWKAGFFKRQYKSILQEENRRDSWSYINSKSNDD
T1 sequence (P26010 20-798): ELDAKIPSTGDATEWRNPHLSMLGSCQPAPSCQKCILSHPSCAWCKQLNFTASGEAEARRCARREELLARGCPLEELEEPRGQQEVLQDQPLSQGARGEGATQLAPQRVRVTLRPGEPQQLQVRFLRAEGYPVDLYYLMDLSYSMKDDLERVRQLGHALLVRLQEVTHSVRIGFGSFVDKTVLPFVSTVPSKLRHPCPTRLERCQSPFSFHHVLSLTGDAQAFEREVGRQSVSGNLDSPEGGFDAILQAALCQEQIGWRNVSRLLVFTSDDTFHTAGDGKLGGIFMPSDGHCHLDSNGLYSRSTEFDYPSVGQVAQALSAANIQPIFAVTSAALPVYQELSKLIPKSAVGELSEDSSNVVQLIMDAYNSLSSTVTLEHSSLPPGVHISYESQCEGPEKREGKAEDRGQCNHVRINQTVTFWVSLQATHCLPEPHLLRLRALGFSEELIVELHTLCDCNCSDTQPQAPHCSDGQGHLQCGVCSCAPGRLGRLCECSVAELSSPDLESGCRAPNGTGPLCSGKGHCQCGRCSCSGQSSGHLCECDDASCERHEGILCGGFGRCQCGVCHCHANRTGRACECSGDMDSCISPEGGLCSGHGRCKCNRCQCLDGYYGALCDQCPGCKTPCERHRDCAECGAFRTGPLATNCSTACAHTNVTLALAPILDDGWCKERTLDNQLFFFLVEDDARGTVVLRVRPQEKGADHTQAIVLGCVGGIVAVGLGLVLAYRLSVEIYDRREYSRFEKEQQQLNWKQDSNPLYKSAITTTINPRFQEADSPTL

With `Cn1c(=O)c(-c2cccc3c(C[C@H](NC(=O)c4c(F)cc(C5CCNC5)cc4F)C(=O)O)cccc23)c(C(F)(F)F)c2ccccc21` (stereo partly shown) [Compound 366], the half-inhibitory concentration (IC50) against α4β7 integrin [1] and on α4β7 integrin [2] (setting [3]) was 100 to 1000 nM each time.
Turning to `CN(C)CCc1cc(F)c(C(=O)N[C@@H](Cc2cccc3c(-c4c(C(F)(F)F)c5ccccc5n(C)c4=O)cccc23)C(=O)O)c(F)c1` [Compound 367], the IC50 at α4β7 integrin [1] and at α4β7 integrin [2] (setting [3]) was 100 to 1000 nM in each case.
Take `Cn1c(=O)c(-c2cccc3c(C[C@H](NC(=O)c4c(F)cc(N5CCC(CO)C5)cc4F)C(=O)O)cccc23)c(C(F)(F)F)c2ccccc21` (stereo partly shown) [Compound 462]: the concentration for half-maximal inhibition (IC50) on α4β7 integrin [1] and on α4β7 integrin [2] (setting [3]) was 100 to 1000 nM throughout.
For `Cn1c(=O)c(-c2cccc3c(C[C@H](NC(=O)c4c(F)cc(N5CC6C(C5)C6(F)F)cc4F)C(=O)O)cccc23)c(C(F)(F)F)c2ccccc21` (stereo partly shown) [Compound 389], the concentration for half-maximal inhibition (IC50) on α4β7 integrin [1] and at α4β7 integrin [2] (setting [3]) was 100 to 1000 nM in each case.
On to `Cn1c(=O)c(-c2cccc3c(C[C@H](NC(=O)C45CC(N6CCOCC6)(C4)C5)C(=O)O)cccc23)c(C(F)(F)F)c2ccccc21` [Compound 459], for which the IC50 on α4β7 integrin [1] and at α4β7 integrin [2] (setting [3]) was 100 to 1000 nM throughout.
As to `Cn1c(=O)c(-c2cccc3c(C[C@H](NC(=O)c4c(F)cccc4C(F)(F)F)C(=O)O)cccc23)c(C(F)(F)F)c2ccccc21` [Compound 443], the values for the IC50 against α4β7 integrin [1] and at α4β7 integrin [2] (setting [3]) were 100 to 1000 nM and > 1000 nM, respectively.
As to `Cn1c(=O)c(-c2cccc3c(C[C@H](NC(=O)c4c(F)cc(N5CC(F)(F)OC(F)(F)C5)cc4F)C(=O)O)cccc23)c(C(F)(F)F)c2ccccc21` [Compound 341], the IC50 against α4β7 integrin [1] and at α4β7 integrin [2] (setting [3]) was 100 to 1000 nM each time.
With `Cn1c(C(=O)N[C@@H](Cc2cccc3c(-c4c(C(F)(F)F)c5ccccc5n(C)c4=O)cccc23)C(=O)O)cnc1C1CCOCC1` [Compound 328], the IC50 on α4β7 integrin [1] and at α4β7 integrin [2] (setting [3]) was 100 to 1000 nM in each case.
In the case of `Cn1c(=O)c(-c2cccc3c(C[C@H](NC(=O)c4c(F)cc(NC5(C(F)F)CC5)cc4F)C(=O)O)cccc23)c(C(F)(F)F)c2ccccc21` [Compound 387], the IC50 at α4β7 integrin [1] and on α4β7 integrin [2] (setting [3]) was 100 to 1000 nM each time.
Take `Cn1c(=O)c(-c2cccc3c(C[C@H](NC(=O)c4c(F)cc(CCN5CC(F)C5)cc4F)C(=O)O)cccc23)c(C(F)(F)F)c2ccccc21` [Compound 371]: the half-maximal inhibitory concentration (IC50) against α4β7 integrin [1] and at α4β7 integrin [2] (setting [3]) was 100 to 1000 nM throughout.
`CC[C@@](Cc1cccs1)(C(=O)N[C@@H](Cc1cccc2c(-n3c(=O)ccn(C)c3=O)cccc12)C(=O)O)c1ccccc1` [Compound 292]: the half-maximal inhibitory concentration (IC50) against α4β7 integrin [1] and on α4β7 integrin [2] (setting [3]) was 100 to 1000 nM throughout.
Turning to `Cn1ccc(C(F)(F)F)c(-c2cccc3c(C[C@H](NC(=O)c4c(F)cc(N5CCOC[C@H]5c5ccccc5)cc4F)C(=O)O)cccc23)c1=O` [Compound 438], the half-inhibitory concentration (IC50) was 100 to 1000 nM at α4β7 integrin [1] and 10 to 100 nM on α4β7 integrin [2] (setting [3]).
In the case of `Cn1c(=O)c(-c2cccc3c(C[C@H](NC(=O)c4c(F)cc(C5CCCOC5)cc4F)C(=O)O)cccc23)c(C(F)(F)F)c2ccccc21` (stereo partly shown) [Compound 374], the IC50 against α4β7 integrin [1] and at α4β7 integrin [2] (setting [3]) was 100 to 1000 nM each time.
As for `Cn1c(=O)c(-c2cccc3c(C[C@H](NC(=O)[C@]4(C)CC[C@@H](N5CCS(=O)(=O)CC5)CC4)C(=O)O)cccc23)c(C(F)(F)F)c2ccccc21` [Compound 404], the 50% inhibitory concentration (IC50) against α4β7 integrin [1] and on α4β7 integrin [2] (setting [3]) was 100 to 1000 nM in each case.
Turning to `Cc1cccc(C)c1-c1cc(C(=O)N[C@@H](Cc2cccc3c(-n4c(=O)cc(CCN5CC(F)C5)n(C)c4=O)cccc23)C(=O)O)c(F)c(C(F)(F)F)c1` [Compound 1056], the half-maximal inhibitory concentration (IC50) against α4β7 integrin [1] (protocol not given) is 100 to 1000 nM; on α4β7 integrin [2] (Protocol 4, RPMI-8866 cells with LOF mutation of ITGB1, MAdCAM, read-out: Mean IC50 α4β7 KO) it was > 1000 nM.
In the case of `Cn1c(=O)c(-c2cccc3c(C[C@H](NC(=O)c4c(F)cc(N5CCOC[C@@H]5c5ccccc5)cc4F)C(=O)O)cccc23)c(C(F)(F)F)c2ccccc21` [Compound 336], the IC50 at α4β7 integrin [1] and at α4β7 integrin [2] (setting [3]) was 100 to 1000 nM each time.
Regarding `CN(C)c1ccc2c(c1)c(C(F)(F)F)c(-c1cccc3c(C[C@H](NC(=O)[C@]4(C)CC[C@@H](N5CCOC[C@@H]5C(F)(F)F)CC4)C(=O)O)cccc13)c(=O)n2C` [Compound 409], the concentration for half-maximal inhibition (IC50) at α4β7 integrin [1] and at α4β7 integrin [2] (setting [3]) was 100 to 1000 nM in each case.

A word on the IC50: it is the concentration that gives 50% inhibition.
